From PubChem BioAssay (NCI)
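Method: 48-hour compound exposure of cells in 96-well plates, five concentrations, linear interpolation of endpoints. GI50 = concentration required for 50% inhibition of growth. Definition used: TGI = concentration required for complete inhibition of growth.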

Assays:
Experiment in all cases: NCI-60 cell line screen, 48 h
786-0 renal = system: 786-0 renal
A498 renal = system: A498 renal
A549 NSCLC = system: A549 NSCLC
ACHN renal = system: ACHN renal
BT-549 breast = system: BT-549 breast
CAKI-1 renal = system: CAKI-1 renal
CCRF-CEM leukemia = system: CCRF-CEM leukemia
COLO 205 colon = system: COLO 205 colon
DU-145 prostate = system: DU-145 prostate
EKVX NSCLC = system: EKVX NSCLC
HCC-2998 colon = system: HCC-2998 colon
HCT-116 colon = system: HCT-116 colon
HCT-15 colon = system: HCT-15 colon
HL-60(TB) leukemia = system: HL-60(TB) leukemia
HOP-62 NSCLC = system: HOP-62 NSCLC
HOP-92 NSCLC = system: HOP-92 NSCLC
HS 578T breast = system: HS 578T breast
HT29 colon = system: HT29 colon
IGROV1 ovarian = system: IGROV1 ovarian
K-562 leukemia = system: K-562 leukemia
KM12 colon = system: KM12 colon
LOX IMVI melanoma = system: LOX IMVI melanoma
M14 melanoma = system: M14 melanoma
MALME-3M melanoma = system: MALME-3M melanoma
MCF7 breast = system: MCF7 breast
MDA-MB-231 breast = system: MDA-MB-231 breast
MDA-MB-435 = system: MDA-MB-435
MOLT-4 leukemia = system: MOLT-4 leukemia
NCI-H226 lung = system: NCI-H226 lung
NCI-H23 lung = system: NCI-H23 lung
NCI-H460 lung = system: NCI-H460 lung
NCI-H522 lung = system: NCI-H522 lung
NCI/ADR-RES ovarian = system: NCI/ADR-RES ovarian
OVCAR-3 ovarian = system: OVCAR-3 ovarian
OVCAR-4 ovarian = system: OVCAR-4 ovarian
OVCAR-5 ovarian = system: OVCAR-5 ovarian
OVCAR-8 ovarian = system: OVCAR-8 ovarian
PC-3 prostate = system: PC-3 prostate
RPMI-8226 leukemia = system: RPMI-8226 leukemia
RXF 393 renal = system: RXF 393 renal
SF-268 CNS = system: SF-268 CNS
SF-295 CNS = system: SF-295 CNS
SF-539 CNS = system: SF-539 CNS
SK-MEL-2 melanoma = system: SK-MEL-2 melanoma
SK-MEL-28 melanoma = system: SK-MEL-28 melanoma
SK-MEL-5 melanoma = system: SK-MEL-5 melanoma
SK-OV-3 ovarian = system: SK-OV-3 ovarian
SN12C renal = system: SN12C renal
SNB-19 CNS = system: SNB-19 CNS
SNB-75 CNS = system: SNB-75 CNS
SR leukemia = system: SR leukemia
SW-620 colon = system: SW-620 colon
T-47D breast = system: T-47D breast
TK-10 renal = system: TK-10 renal
U251 CNS = system: U251 CNS
UACC-257 melanoma = system: UACC-257 melanoma
UACC-62 melanoma = system: UACC-62 melanoma
UO-31 renal = system: UO-31 renal

## CN1CCN(c2ccc3nc(-c4c5cccccc-5[nH]c4=O)[nH]c3c2)CC1
786-0 renal
  GI50: 11.2 µM
  TGI: 46.6 µM
A498 renal
  GI50: 4.77 µM
  TGI: 21.4 µM
A549 NSCLC
  GI50: 7.58 µM
  TGI: > 59.3 µM
ACHN renal
  GI50: 6.09 µM
  TGI: 60.9 µM
BT-549 breast
  GI50: 13.4 µM
  TGI: 66 µM
CAKI-1 renal
  GI50: 7.29 µM
  TGI: > 62.1 µM
CCRF-CEM leukemia
  GI50: 10.1 µM
  TGI: > 84.1 µM
COLO 205 colon
  GI50: 8.39 µM
  TGI: 22.2 µM
DU-145 prostate
  GI50: 9.67 µM
  TGI: 35.8 µM
EKVX NSCLC
  GI50: 29.4 µM
  TGI: > 100 µM
HCC-2998 colon
  GI50: 13.7 µM
  TGI: 37 µM
HCT-116 colon
  GI50: 9.55 µM
  TGI: 25.5 µM
HCT-15 colon
  GI50: 11.5 µM
  TGI: 55.9 µM
HL-60(TB) leukemia
  GI50: 13.7 µM
  TGI: 33.5 µM
HOP-62 NSCLC
  GI50: 10.5 µM
  TGI: 54.7 µM
HOP-92 NSCLC
  GI50: 18 µM
  TGI: > 100 µM
HS 578T breast
  GI50: 13 µM
  TGI: > 100 µM
HT29 colon
  GI50: 8 µM
  TGI: 23.1 µM
IGROV1 ovarian
  GI50: 5.27 µM
  TGI: 45.5 µM
K-562 leukemia
  GI50: 10.6 µM
  TGI: 53.4 µM
KM12 colon
  GI50: 0.266 µM
  TGI: 13.9 µM
LOX IMVI melanoma
  GI50: 7.78 µM
  TGI: 22.4 µM
M14 melanoma
  GI50: 13.3 µM
  TGI: 27.8 µM
MALME-3M melanoma
  GI50: 14.6 µM
  TGI: 31 µM
MCF7 breast
  GI50: 6.27 µM
  TGI: 32.1 µM
MDA-MB-231 breast
  GI50: 11.8 µM
  TGI: 36.7 µM
MDA-MB-435
  GI50: 14.3 µM
  TGI: 29.7 µM
MOLT-4 leukemia
  GI50: 3.49 µM
  TGI: 22.3 µM
NCI-H226 lung
  GI50: 7.18 µM
  TGI: 55.9 µM
NCI-H23 lung
  GI50: 13.9 µM
  TGI: 51.7 µM
NCI-H460 lung
  GI50: 5.45 µM
  TGI: 27.2 µM
NCI-H522 lung
  GI50: 15.6 µM
  TGI: > 46.8 µM
NCI/ADR-RES ovarian
  GI50: 23.4 µM
  TGI: 97.4 µM
OVCAR-3 ovarian
  GI50: 17.2 µM
  TGI: 58.2 µM
OVCAR-4 ovarian
  GI50: 13.9 µM
  TGI: 55.2 µM
OVCAR-5 ovarian
  GI50: 15.9 µM
  TGI: 52.1 µM
OVCAR-8 ovarian
  GI50: 11.3 µM
  TGI: > 72.2 µM
PC-3 prostate
  GI50: 17.4 µM
  TGI: > 100 µM
RPMI-8226 leukemia
  GI50: 16.8 µM
  TGI: 62.4 µM
RXF 393 renal
  GI50: 3.39 µM
  TGI: 15.8 µM
SF-268 CNS
  GI50: 11.9 µM
  TGI: 40.3 µM
SF-295 CNS
  GI50: 20.3 µM
  TGI: > 76.5 µM
SF-539 CNS
  GI50: 10.1 µM
  TGI: 22.8 µM
SK-MEL-2 melanoma
  GI50: 27.1 µM
  TGI: > 66.9 µM
SK-MEL-28 melanoma
  GI50: 15.6 µM
  TGI: 30.3 µM
SK-MEL-5 melanoma
  GI50: 14.8 µM
  TGI: 28.3 µM
SK-OV-3 ovarian
  GI50: 9.43 µM
  TGI: 83.1 µM
SN12C renal
  GI50: 5.37 µM
  TGI: > 80.9 µM
SNB-19 CNS
  GI50: 12.3 µM
  TGI: 71.6 µM
SNB-75 CNS
  GI50: 7.64 µM
  TGI: > 45.2 µM
SR leukemia
  GI50: 12.7 µM
  TGI: 49.5 µM
SW-620 colon
  GI50: 5.79 µM
  TGI: 43.7 µM
T-47D breast
  GI50: 30.8 µM
  TGI: > 91.7 µM
TK-10 renal
  GI50: 27.9 µM
  TGI: > 74.5 µM
U251 CNS
  GI50: 11.6 µM
  TGI: 41 µM
UACC-257 melanoma
  GI50: 17.6 µM
  TGI: 35.3 µM
UACC-62 melanoma
  GI50: 19.6 µM
  TGI: 43.4 µM
UO-31 renal
  GI50: 3.53 µM
  TGI: 52.9 µM
